From PubChem BioAssay AID248 (DTP/NCI, 2004)
Several values for one entry are separate records, joined by “and”; a condition that tells them apart may be missing. Equal entries are not always repeated. Toxic doses and inconclusive results are not listed. Rule as the data show it: active = T/C of 150% or more; inactive = T/C below 125%. Numbered stars: 1 amine (or outer) side, 2 acyl side, 3 side chain; on linkers, the order of the positions; unused ones are H or OH. Bridge positions count the residues as written; N and C are the ends. Square brackets hold non-standard residues; d marks the D form. Peptide text beside a SMILES is read from it. I, II: the chains in the order shown. Actinocin(1to9) = Cc1c2oc3c(C)ccc(C(=O)[*:2])c3nc-2c(C(=O)[*:1])c(N)c1=O; X5 = O=C1CC(C(=O)[*:2])N([*:1])C1; NMeV = CN[CH](C(=O)O)C(C)C; Sar = CNCC(=O)O

Tested on: L1210 leukemia ip in BDF1 mice, survival T/C
Assay: NCI In Vivo Anticancer Drug Screen. Data for tumor model L1210 Leukemia (intraperitoneal) in B6D2F1 (BDF1) mice
Conditions: higher = longer survival
Summary of the method: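 Read-out is survival time, reported as the treated-group measurement over the vehicle-control measurement.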

[1] = endpoint: mean survival time, dose: 100.0 mg/kg/injection, schedule: Q04DX003 (ip), vehicle: saline
[2] = endpoint: mean survival time, dose: 200.0 mg/kg/injection, schedule: Q04DX003 (ip), vehicle: saline
[3] = endpoint: mean survival time, dose: 400.0 mg/kg/injection, schedule: Q04DX003 (ip), vehicle: saline
[4] = endpoint: mean survival time, dose: 100.0 mg/kg/injection, schedule: Q01DX001 (ip), vehicle: Klucel (hydroxypropylcellulose) (HPC)
[5] = endpoint: mean survival time, dose: 200.0 mg/kg/injection, schedule: Q01DX001 (ip), vehicle: Klucel (hydroxypropylcellulose) (HPC)
[6] = endpoint: mean survival time, dose: 400.0 mg/kg/injection, schedule: Q01DX001 (ip), vehicle: Klucel (hydroxypropylcellulose) (HPC)
[7] = endpoint: mean survival time, dose: 100.0 mg/kg/injection, schedule: Q01DX009 (ip), vehicle: Klucel (hydroxypropylcellulose) (HPC)
[8] = endpoint: mean survival time, dose: 200.0 mg/kg/injection, schedule: Q01DX009 (ip), vehicle: Klucel (hydroxypropylcellulose) (HPC)
[9] = endpoint: mean survival time, dose: 400.0 mg/kg/injection, schedule: Q01DX009 (ip), vehicle: Klucel (hydroxypropylcellulose) (HPC)
[10] = endpoint: mean survival time, dose: 100.0 mg/kg/injection, schedule: Q01DX009 (ip), vehicle: saline with Tween-80
[11] = endpoint: mean survival time, dose: 200.0 mg/kg/injection, schedule: Q01DX009 (ip), vehicle: saline with Tween-80
[12] = endpoint: mean survival time, dose: 100.0 mg/kg/injection, schedule: Q01DX001 (ip), vehicle: carboxymethylcellulose (CMC)
[13] = endpoint: mean survival time, dose: 100.0 mg/kg/injection, schedule: Q01DX009 (ip), vehicle: carboxymethylcellulose (CMC)
[14] = endpoint: mean survival time, dose: 100.0 mg/kg/injection, schedule: Q04DX003 (ip), vehicle: carboxymethylcellulose (CMC)
[15] = endpoint: mean survival time, dose: 200.0 mg/kg/injection, schedule: Q01DX001 (ip), vehicle: carboxymethylcellulose (CMC)
[16] = endpoint: mean survival time, dose: 200.0 mg/kg/injection, schedule: Q01DX009 (ip), vehicle: carboxymethylcellulose (CMC)
[17] = endpoint: mean survival time, dose: 200.0 mg/kg/injection, schedule: Q04DX003 (ip), vehicle: carboxymethylcellulose (CMC)
[18] = endpoint: mean survival time, dose: 400.0 mg/kg/injection, schedule: Q01DX001 (ip), vehicle: carboxymethylcellulose (CMC)
[19] = endpoint: mean survival time, dose: 400.0 mg/kg/injection, schedule: Q04DX003 (ip), vehicle: carboxymethylcellulose (CMC)
[20] = endpoint: mean survival time, dose: 100.0 mg/kg/injection, schedule: Q01DX001 (ip), vehicle: saline
[21] = endpoint: mean survival time, dose: 200.0 mg/kg/injection, schedule: Q01DX001 (ip), vehicle: saline
[22] = endpoint: mean survival time, dose: 400.0 mg/kg/injection, schedule: Q01DX001 (ip), vehicle: saline
[23] = endpoint: mean survival time, dose: 100.0 mg/kg/injection, schedule: Q04DX002 (ip), vehicle: saline with Tween-80
[24] = endpoint: mean survival time, dose: 200.0 mg/kg/injection, schedule: Q04DX002 (ip), vehicle: saline with Tween-80
[25] = endpoint: mean survival time, dose: 400.0 mg/kg/injection, schedule: Q04DX002 (ip), vehicle: saline with Tween-80
[26] = endpoint: mean survival time, dose: 50.0 mg/kg/injection, schedule: Q01DX009 (ip), vehicle: saline with Tween-80

Measured: T/C

Cc1c2oc3c(C)ccc(C(=O)NC4C(=O)NC(C(C)C)C(=O)N5CCCC5C(=O)N(C)CC(=O)N(C)C(C(C)C)C(=O)OC4C)c3nc-2c(C(=O)NC2C(=O)NC(C(C)C)C(=O)N3CC(=O)CC3C(=O)N(C)CC(=O)N(C)C(C(C)C)C(=O)OC2C)c(N)c1=O (stereo unspecified) (I: TV[X5][Sar][NMeV] / II: TVP[Sar][NMeV]; ester I:1-I:C, II:1-II:C; linker I:N-II:N via Actinocin(1to9); configuration not given here)
inactive: endpoint: median survival time, dose: 3.1 micrograms/kg/injection, schedule: Q01DX009 (ip), vehicle: water 108 % of control | endpoint: median survival time, dose: 6.2 micrograms/kg/injection, schedule: Q01DX009 (ip), vehicle: water 120 % of control | endpoint: median survival time, dose: 12.5 micrograms/kg/injection, schedule: Q01DX009 (ip), vehicle: water 116 % of control | endpoint: median survival time, dose: 18.7 micrograms/kg/injection, schedule: Q04DX003 (ip), vehicle: water 108 % of control | endpoint: median survival time, dose: 25.0 micrograms/kg/injection, schedule: Q01DX009 (ip), vehicle: water 108 % of control | endpoint: median survival time, dose: 37.5 micrograms/kg/injection, schedule: Q04DX003 (ip), vehicle: water 113 % of control

Cc1ccc(-c2nn[nH]n2)cc1
inactive: [1] 97 % of control | [2] 96 % of control | [3] 96 % of control

Nc1ccc(S(=O)(=O)NCCO)cc1[N+](=O)[O-]
inactive: [4] 103 % of control | endpoint: mean survival time, dose: 100.0 mg/kg/injection, schedule: Q01DX009 (ip), vehicle: saline sonified 96 % of control | [5] 106 % of control | endpoint: mean survival time, dose: 200.0 mg/kg/injection, schedule: Q01DX009 (ip), vehicle: saline sonified 102 % of control | [6] 105 % of control | endpoint: mean survival time, dose: 400.0 mg/kg/injection, schedule: Q01DX009 (ip), vehicle: saline sonified 93 % of control

CC(=O)Nc1ccc(/C=C(\C#N)c2cccc3ccccc23)cc1
inactive: [7] 90 % of control | [8] 87 % of control | [9] 88 % of control

CCC(=O)C(CCCCCCOc1ccc(OC)cc1Cl)C(=O)CC
inactive: [10] 92 % of control | [11] 89 % of control | endpoint: mean survival time, dose: 400.0 mg/kg/injection, schedule: Q01DX009 (ip), vehicle: saline with Tween-80 87 % of control

O=C(Nc1ccc2ccccc2c1)c1ccc2c(c1)C(=O)OC2=O
inactive: [12] 97 % of control and 100 % of control | [13] 97 % of control and 98 % of control | endpoint: mean survival time, dose: 100.0 mg/kg/injection, schedule: Q04DX002 (ip), vehicle: carboxymethylcellulose (CMC) 96 % of control and 103 % of control | [14] 100 % of control and 91 % of control | [15] 93 % of control and 100 % of control | [16] 96 % of control and 100 % of control | endpoint: mean survival time, dose: 200.0 mg/kg/injection, schedule: Q04DX002 (ip), vehicle: carboxymethylcellulose (CMC) 99 % of control and 86 % of control | [17] 92 % of control and 91 % of control | [18] 93 % of control and 97 % of control | endpoint: mean survival time, dose: 400.0 mg/kg/injection, schedule: Q01DX009 (ip), vehicle: carboxymethylcellulose (CMC) 100 % of control and 104 % of control | endpoint: mean survival time, dose: 400.0 mg/kg/injection, schedule: Q04DX002 (ip), vehicle: carboxymethylcellulose (CMC) 95 % of control and 90 % of control | [19] 88 % of control and 89 % of control

COc1ccc(OC)c(-c2nnc(Nc3ccc(S(=O)(=O)N4CCCCC4)cc3)s2)c1
inactive: [7] 94 % of control | [8] 91 % of control | [9] 91 % of control

CC(=O)OC1=C(C)CCC1=O
inactive: [20] 89 % of control | [21] 95 % of control | [22] 89 % of control

CCOCCOCCOC(C)Oc1ccc(Cl)cc1Cl (stereo unspecified)
inactive: [23] 97 % of control | [24] 94 % of control | [25] 100 % of control

[O-][N+](=C1c2ccccc2-c2ccccc21)c1ccccc1
inactive: [1] 94 % of control | [2] 92 % of control | [3] 94 % of control

Nc1nc(N)c(-c2ccc(Cl)cc2)c(COc2cccc(NC(=O)c3ccc([N+](=O)[O-])cc3)c2)n1
inactive: [4] 104 % of control | [5] 97 % of control | [6] 91 % of control

COc1ccc(-n2c(=S)[nH]c3ccccc3c2=O)cc1
inactive: endpoint: mean survival time, dose: 100.0 mg/kg/injection, schedule: Q01DX009 (ip), vehicle: other 107 % of control | [1] 95 % of control | endpoint: mean survival time, dose: 200.0 mg/kg/injection, schedule: Q01DX009 (ip), vehicle: other 96 % of control | [2] 91 % of control | endpoint: mean survival time, dose: 400.0 mg/kg/injection, schedule: Q01DX009 (ip), vehicle: other 102 % of control | [3] 91 % of control

O=C(O)c1ccc(OCCOc2ccc([N+](=O)[O-])cc2)c(Cl)c1
inactive: [12] 95 % of control and 105 % of control | [13] 92 % of control and 89 % of control | endpoint: mean survival time, dose: 100.0 mg/kg/injection, schedule: Q04DX002 (ip), vehicle: gum acacia 101 % of control | [14] 95 % of control and 86 % of control | [15] 101 % of control and 103 % of control | [16] 93 % of control and 100 % of control | endpoint: mean survival time, dose: 200.0 mg/kg/injection, schedule: Q04DX002 (ip), vehicle: gum acacia 98 % of control and 99 % of control | [17] 95 % of control and 90 % of control | [18] 100 % of control | endpoint: mean survival time, dose: 400.0 mg/kg/injection, schedule: Q04DX002 (ip), vehicle: gum acacia 94 % of control and 98 % of control | [19] 90 % of control and 91 % of control

CCCc1ccc(OCC=C(C)C)cc1
inactive: endpoint: mean survival time, dose: 50.0 mg/kg/injection, schedule: Q04DX002 (ip), vehicle: saline with Tween-80 100 % of control | [23] 100 % of control

NC(N)=NC=O
inactive: [23] 105 % of control | [24] 98 % of control

CS(=O)(=O)c1nc(Cl)nc(C(Cl)(Cl)Cl)c1Cl
inactive: endpoint: mean survival time, dose: 25.0 mg/kg/injection, schedule: Q01DX009 (ip), vehicle: saline with Tween-80 101 % of control | [26] 95 % of control

CC(=O)Nc1ccc(N)c(NC(C)=O)n1
inactive: [1] 97 % of control | [2] 95 % of control | [3] 109 % of control

ClC1=CC2CCC1C21CC1 (stereo unspecified)
inactive: [26] 105 % of control | endpoint: mean survival time, dose: 100.0 mg/kg/injection, schedule: Q01DX005 (ip), vehicle: saline with Tween-80 92 % of control | [10] 94 % of control | [23] 87 % of control | endpoint: mean survival time, dose: 200.0 mg/kg/injection, schedule: Q01DX005 (ip), vehicle: saline with Tween-80 96 % of control | [11] 97 % of control | [24] 100 % of control | [25] 103 % of control

NC1C2CC3CC1CC(C2)O3 (stereo unspecified)
inactive: endpoint: mean survival time, dose: 25.0 mg/kg/injection, schedule: Q04DX002 (ip), vehicle: saline 103 % of control | endpoint: mean survival time, dose: 50.0 mg/kg/injection, schedule: Q04DX002 (ip), vehicle: saline 106 % of control | endpoint: mean survival time, dose: 100.0 mg/kg/injection, schedule: Q04DX002 (ip), vehicle: saline 106 % of control

N#CCN1C(=O)c2ccccc2S1(=O)=O
inactive: endpoint: mean survival time, dose: 222.0 mg/kg/injection, schedule: Q01DX Z (ip), vehicle: methylcellulose (MC) 110 % of control | endpoint: mean survival time, dose: 333.0 mg/kg/injection, schedule: Q01DX Z (ip), vehicle: methylcellulose (MC) 113 % of control | endpoint: mean survival time, dose: 500.0 mg/kg/injection, schedule: Q01DX Z (ip), vehicle: methylcellulose (MC) 102 % of control

Cc1[nH]c2ccccc2c1C1=CC(=O)c2ccccc2C1=O
inactive: [20] 93 % of control | [21] 112 % of control | [22] 98 % of control
